# In patent US20020197261A1, “Therapeutic agent/ligand conjugate compositions, their methods of synthesis and use” (priority 2001, published 2002):
# Tested on: A431 cells
# Assay: MTT cytotoxicity, 6-hour pretreatment system
# Type: cell-based
# Settings: Homo sapiens, A-431, read-out: IC50 (50% growth inhibition), 6 hours exposure, washing, additional 72 hours incubation
# Procedure: One hundred microliter of growth medium suspending 1000-2000 cells per well was plated out in 96-well plates and incubated for 2 days to allow the cells to attach. Various dilutions of the drug or conjugates were added to each well and the plates were incubated for 72 hours at 37° C. Alternatively, a 6-hour pretreatment protocol was used. Cells were exposed to various concentrations of the drug or conjugate for 6 hours at 37 ° C., and then washed twice with the fresh culture medium. The cells were incubated for additional 72 hours. At the end of the incubation period, twenty microliters of MTT solution from Promega Cell Proliferation Assay kit (Madison, Wis.) were added to the wells. The microplates were then incubated for 1 hour at 37° C. Absorbance was measured at 490 nm using a microplate reader (Molecular Devices Corp, Sunnyvale, Calif.). The data reported represent the means of quadruplicate measurement and the standard errors of the mean were less than 15%.
compound,measurement,value
"COc1cccc2c1C(=O)c1c(O)c3c(c(O)c1C2=O)C[C@@](O)(C(=O)CO)C[C@@H]3O[C@H]1C[C@H](N)[C@H](O)[C@H](C)O1 [Adr, Adriamycin]",IC50,17.7 µM
